In PubChem BioAssay (NCI):
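Step 1: Grow cells in 96-well plates. Step 2: Expose to compound for 48 hours at 5 concentrations. Step 3: Interpolate endpoints linearly; if unreached, use highest concentration. GI50 = concentration required for 50% inhibition of growth. TGI: total growth inhibition.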

Key:
Assay in all cases: NCI anticancer screen, dose series, 48 h
[1] = test system: 786-0 renal
[2] = test system: A498 renal
[3] = test system: A549 NSCLC
[4] = test system: ACHN renal
[5] = test system: BT-549 breast
[6] = test system: CAKI-1 renal
[7] = test system: CCRF-CEM leukemia
[8] = test system: COLO 205 colon
[9] = test system: DU-145 prostate
[10] = test system: EKVX NSCLC
[11] = test system: HCC-2998 colon
[12] = test system: HCT-116 colon
[13] = test system: HCT-15 colon
[14] = test system: HOP-62 NSCLC
[15] = test system: HS 578T breast
[16] = test system: HT29 colon
[17] = test system: IGROV1 ovarian
[18] = test system: K-562 leukemia
[19] = test system: KM12 colon
[20] = test system: M14 melanoma
[21] = test system: MALME-3M melanoma
[22] = test system: MCF7 breast
[23] = test system: MDA-MB-231 breast
[24] = test system: MDA-MB-435
[25] = test system: MOLT-4 leukemia
[26] = test system: NCI-H226 lung
[27] = test system: NCI-H23 lung
[28] = test system: NCI-H460 lung
[29] = test system: NCI-H522 lung
[30] = test system: NCI/ADR-RES ovarian
[31] = test system: OVCAR-3 ovarian
[32] = test system: OVCAR-4 ovarian
[33] = test system: OVCAR-5 ovarian
[34] = test system: OVCAR-8 ovarian
[35] = test system: PC-3 prostate
[36] = test system: RPMI-8226 leukemia
[37] = test system: RXF 393 renal
[38] = test system: SF-268 CNS
[39] = test system: SF-295 CNS
[40] = test system: SK-MEL-2 melanoma
[41] = test system: SK-MEL-28 melanoma
[42] = test system: SK-MEL-5 melanoma
[43] = test system: SK-OV-3 ovarian
[44] = test system: SN12C renal
[45] = test system: SNB-19 CNS
[46] = test system: SNB-75 CNS
[47] = test system: SR leukemia
[48] = test system: SW-620 colon
[49] = test system: T-47D breast
[50] = test system: TK-10 renal
[51] = test system: U251 CNS
[52] = test system: UACC-257 melanoma
[53] = test system: UACC-62 melanoma
[54] = test system: UO-31 renal
[55] = test system: HL-60(TB) leukemia
[56] = test system: HOP-92 NSCLC
[57] = test system: LOX IMVI melanoma
[58] = test system: SF-539 CNS

OCCN(CCO)c1ccc2c(-c3ccccc3)cc(N(CCO)CCO)nc2n1
TGI [1]: > 100 µM | TGI [2]: > 100 µM | TGI [3]: > 100 µM | TGI [4]: > 100 µM | TGI [5]: > 100 µM | TGI [6]: > 100 µM | TGI [7]: > 100 µM | TGI [8]: > 100 µM | TGI [9]: > 100 µM | TGI [10]: > 100 µM | TGI [11]: > 100 µM | TGI [12]: > 100 µM | TGI [13]: > 100 µM | TGI [14]: > 100 µM | TGI [15]: > 100 µM | TGI [16]: > 100 µM | TGI [17]: > 100 µM | TGI [18]: > 100 µM | TGI [19]: > 100 µM | TGI [20]: > 100 µM | TGI [21]: > 100 µM | TGI [22]: > 100 µM | TGI [23]: > 100 µM | TGI [24]: > 100 µM | TGI [25]: > 100 µM | TGI [26]: > 100 µM | TGI [27]: > 100 µM | TGI [28]: > 100 µM | TGI [29]: > 100 µM | TGI [30]: > 100 µM | TGI [31]: > 100 µM | TGI [32]: > 100 µM | TGI [33]: > 100 µM | TGI [34]: > 100 µM | TGI [35]: > 100 µM | TGI [36]: > 100 µM | TGI [37]: > 100 µM | TGI [38]: > 100 µM | TGI [39]: > 100 µM | TGI [40]: > 100 µM | TGI [41]: > 100 µM | TGI [42]: > 100 µM | TGI [43]: > 100 µM | TGI [44]: > 100 µM | TGI [45]: > 100 µM | TGI [46]: > 100 µM | TGI [47]: > 100 µM | TGI [48]: > 100 µM | TGI [49]: > 100 µM | TGI [50]: > 100 µM | TGI [51]: > 100 µM | TGI [52]: > 100 µM | TGI [53]: > 100 µM | TGI [54]: > 100 µM

CC(=O)N1CCC(Nc2ncc3cc(Oc4ccc(F)cc4F)c(=O)n(C)c3n2)CC1
GI50 [1]: > 25 µM | TGI [1]: > 25 µM | GI50 [2]: 9.26 µM | TGI [2]: > 25 µM | GI50 [3]: > 25 µM | TGI [3]: > 25 µM | GI50 [4]: > 25 µM | TGI [4]: > 25 µM | GI50 [5]: > 25 µM | TGI [5]: > 25 µM | GI50 [6]: > 25 µM | TGI [6]: > 25 µM | GI50 [7]: > 25 µM | TGI [7]: > 25 µM | GI50 [8]: > 25 µM | TGI [8]: > 25 µM | GI50 [9]: > 25 µM | TGI [9]: > 25 µM | GI50 [11]: > 25 µM | TGI [11]: > 25 µM | GI50 [12]: > 25 µM | TGI [12]: > 25 µM | GI50 [13]: > 25 µM | TGI [13]: > 25 µM | GI50 [55]: > 25 µM | TGI [55]: > 25 µM | GI50 [14]: > 25 µM | TGI [14]: > 25 µM | GI50 [56]: 2.45 µM | TGI [56]: > 25 µM | GI50 [15]: 8.69 µM | TGI [15]: > 25 µM | GI50 [16]: > 25 µM | TGI [16]: > 25 µM | GI50 [17]: > 25 µM | TGI [17]: > 25 µM | GI50 [18]: > 25 µM | TGI [18]: > 25 µM | GI50 [19]: > 25 µM | TGI [19]: > 25 µM | GI50 [57]: > 25 µM | TGI [57]: > 25 µM | GI50 [20]: > 25 µM | TGI [20]: > 25 µM | GI50 [21]: > 25 µM | TGI [21]: > 25 µM | GI50 [22]: > 25 µM | TGI [22]: > 25 µM | GI50 [23]: > 25 µM | TGI [23]: > 25 µM | GI50 [24]: > 25 µM | TGI [24]: > 25 µM | GI50 [25]: > 25 µM | TGI [25]: > 25 µM | GI50 [26]: > 25 µM | TGI [26]: > 25 µM | GI50 [27]: > 25 µM | TGI [27]: > 25 µM | GI50 [28]: > 25 µM | TGI [28]: > 25 µM | GI50 [29]: > 25 µM | TGI [29]: > 25 µM | GI50 [30]: > 25 µM | TGI [30]: > 25 µM | GI50 [31]: > 25 µM | TGI [31]: > 25 µM | GI50 [32]: > 18.8 µM | TGI [32]: > 25 µM | GI50 [33]: > 25 µM | TGI [33]: > 25 µM | GI50 [34]: > 25 µM | TGI [34]: > 25 µM | GI50 [35]: > 25 µM | TGI [35]: > 25 µM | GI50 [36]: > 25 µM | TGI [36]: > 25 µM | GI50 [37]: > 16.9 µM | TGI [37]: > 25 µM | GI50 [38]: > 25 µM | TGI [38]: > 25 µM | GI50 [39]: > 25 µM | TGI [39]: > 25 µM | GI50 [58]: > 25 µM | TGI [58]: > 25 µM | GI50 [40]: > 25 µM | TGI [40]: > 25 µM | GI50 [41]: > 25 µM | TGI [41]: > 25 µM | GI50 [42]: > 25 µM | TGI [42]: > 25 µM | GI50 [43]: > 25 µM | TGI [43]: > 25 µM | GI50 [44]: > 25 µM | TGI [44]: > 25 µM | GI50 [45]: > 25 µM | TGI [45]: > 25 µM | GI50 [46]: > 22 µM | TGI [46]: > 25 µM | GI50 [47]: > 25 µM | TGI [47]: > 25 µM | GI50 [48]: > 25 µM | TGI [48]: > 25 µM | GI50 [49]: > 25 µM | TGI [49]: > 25 µM | GI50 [50]: > 25 µM | TGI [50]: > 25 µM | GI50 [51]: > 25 µM | TGI [51]: > 25 µM | GI50 [52]: > 25 µM | TGI [52]: > 25 µM | GI50 [53]: > 25 µM | TGI [53]: > 25 µM | GI50 [54]: > 17.7 µM | TGI [54]: > 25 µM
